The NIST ThermoML archive (doi:10.1021/je800218g)
± gives the expanded uncertainty stated by the source.

Assay: activity coefficient (dimensionless); of the first substance listed, at infinite dilution; xn = mol fraction of the nth substance listed
Settings: Liquid, Chromatography, x1 = 0

Row | Compound | activity coefficient (303.15 K) | activity coefficient (313.15 K) | activity coefficient (323.15 K) | activity coefficient (333.15 K) | activity coefficient (343.15 K) | activity coefficient (353.15 K) | activity coefficient (363.15 K)
1 | Cc1ccccc1 [toluene] + CCn1cc[n+](C)c1.F[B-](F)(F)F | 3.68 ± 0.39 | 3.66 ± 0.38 | 3.62 ± 0.38 | 3.56 ± 0.37 | 3.52 ± 0.37 | 3.48 ± 0.37 | 3.4 ± 0.36
2 | C1COCCO1 [1,4-dioxane] + CCn1cc[n+](C)c1.F[B-](F)(F)F | 1.35 ± 0.14 | 1.4 ± 0.14 | 1.42 ± 0.15 | 1.44 ± 0.15 | 1.47 ± 0.15 | 1.49 ± 0.15 | 1.51 ± 0.16
3 | ClC(Cl)(Cl)Cl [tetrachloromethane] + CCn1cc[n+](C)c1.F[B-](F)(F)F | 4.31 ± 0.45 | 4.41 ± 0.46 | 4.56 ± 0.48 | 4.66 ± 0.49 | 4.8 ± 0.5 | 4.89 ± 0.51 | 4.98 ± 0.52
4 | CC#N [acetonitrile] + CCn1cc[n+](C)c1.F[B-](F)(F)F | 0.892 ± 0.091 | 0.875 ± 0.09 | 0.853 ± 0.087 | 0.832 ± 0.085 | 0.814 ± 0.084 | 0.792 ± 0.082 | 0.769 ± 0.079
5 | c1ccccc1 [benzene] + CCn1cc[n+](C)c1.F[B-](F)(F)F | 2.13 ± 0.22 | 2.11 ± 0.22 | 2.09 ± 0.22 | 2.05 ± 0.21 | 2.02 ± 0.21 | 1.99 ± 0.21 | 1.96 ± 0.21
6 | Cc1cccc(C)c1 [1,3-dimethylbenzene] + CCn1cc[n+](C)c1.F[B-](F)(F)F | 5.88 ± 0.62 | 5.71 ± 0.6 | 5.57 ± 0.59 | 5.32 ± 0.56 | 5.17 ± 0.54 | 4.98 ± 0.52 | 4.83 ± 0.51
7 | CCc1ccccc1 [ethylbenzene] + CCn1cc[n+](C)c1.F[B-](F)(F)F | 6.49 ± 0.68 | 6.3 ± 0.66 | 6.11 ± 0.64 | 5.89 ± 0.62 | 5.58 ± 0.59 | 5.44 ± 0.57 | 5.31 ± 0.56
8 | C1CCOC1 [tetrahydrofuran] + CCn1cc[n+](C)c1.F[B-](F)(F)F | 1.87 ± 0.2 | 1.85 ± 0.19 | 1.83 ± 0.19 | 1.82 ± 0.19 | 1.8 ± 0.19 | 1.77 ± 0.18 | 1.74 ± 0.18
9 | CCCCCCCCCC [decane] + CCn1cc[n+](C)c1.F[B-](F)(F)F | 1110 ± 120 | 984 ± 100 | 861 ± 91 | 751 ± 79 | 643 ± 68 | 545 ± 58 | 456 ± 48
10 | CCCCCCCC [octane] + CCn1cc[n+](C)c1.F[B-](F)(F)F | 216 ± 23 | 201 ± 21 | 187 ± 20 | 173 ± 18 | 158 ± 17 | 149 ± 16 | 140 ± 15
11 | ClCCl [dichloromethane] + CCn1cc[n+](C)c1.F[B-](F)(F)F | 1.12 ± 0.12 | 1.16 ± 0.12 | 1.21 ± 0.12 | 1.25 ± 0.13 | 1.32 ± 0.14 | 1.36 ± 0.14 | 1.39 ± 0.14
12 | CC1CCCCC1 [methylcyclohexane] + CCn1cc[n+](C)c1.F[B-](F)(F)F | 93 ± 9.8 | 79.7 ± 8.4 | 67.7 ± 7.1 | 58.9 ± 6.2 | 51.4 ± 5.4 | 43.3 ± 4.6 | 32.3 ± 3.4
13 | CCOC(C)=O [ethyl acetate] + CCn1cc[n+](C)c1.F[B-](F)(F)F | 2.94 ± 0.31 | 2.92 ± 0.31 | 2.89 ± 0.3 | 2.87 ± 0.3 | 2.83 ± 0.3 | 2.79 ± 0.29 | 2.75 ± 0.29
14 | CCCCCCC [heptane] + CCn1cc[n+](C)c1.F[B-](F)(F)F | 154 ± 16 | 138 ± 15 | 124 ± 13 | 111 ± 12 | 104 ± 11 | 96 ± 10 | 90.4 ± 9.5
15 | Cc1ccc(C)cc1 [1,4-dimethylbenzene] + CCn1cc[n+](C)c1.F[B-](F)(F)F | 5.41 ± 0.57 | 5.3 ± 0.56 | 5.14 ± 0.54 | 5.03 ± 0.53 | 4.96 ± 0.52 | 4.88 ± 0.51 | 4.76 ± 0.5
16 | C1=CCCCC1 [cyclohexene] + CCn1cc[n+](C)c1.F[B-](F)(F)F | 21.8 ± 2.3 | 19.6 ± 2.1 | 16.6 ± 1.8 | 14.4 ± 1.5 | 12.8 ± 1.3 | 10.5 ± 1.1 | 9.13 ± 0.96
17 | Cc1ccccc1C [1,2-dimethylbenzene] + CCn1cc[n+](C)c1.F[B-](F)(F)F | 4.73 ± 0.5 | 4.69 ± 0.49 | 4.64 ± 0.49 | 4.58 ± 0.48 | 4.5 ± 0.47 | 4.41 ± 0.46 | 4.34 ± 0.46
18 | ClC(Cl)Cl [trichloromethane] + CCn1cc[n+](C)c1.F[B-](F)(F)F | 1.36 ± 0.14 | 1.38 ± 0.14 | 1.39 ± 0.14 | 1.41 ± 0.15 | 1.43 ± 0.15 | 1.46 ± 0.15 | 1.5 ± 0.15
19 | C=Cc1ccccc1 [styrene] + CCn1cc[n+](C)c1.F[B-](F)(F)F | 3.38 ± 0.35 | 3.44 ± 0.36 | 3.49 ± 0.37 | 3.56 ± 0.37 | 3.62 ± 0.38 | 3.65 ± 0.38 | 3.73 ± 0.39
20 | CC(C)=O [acetone] + CCn1cc[n+](C)c1.F[B-](F)(F)F | 1.23 ± 0.13 | 1.26 ± 0.13 | 1.27 ± 0.13 | 1.29 ± 0.13 | 1.31 ± 0.14 | 1.33 ± 0.14 | 1.33 ± 0.14
21 | CCCCCC [hexane] + CCn1cc[n+](C)c1.F[B-](F)(F)F | 101 ± 11 | 95.3 ± 10 | 90.6 ± 9.5 | 85.3 ± 9 | 77.4 ± 8.2 | 74.5 ± 7.8 | 69.5 ± 7.3
22 | CCCCCCCCC [nonane] + CCn1cc[n+](C)c1.F[B-](F)(F)F | 319 ± 34 | 294 ± 31 | 272 ± 29 | 254 ± 27 | 248 ± 26 | 235 ± 25 | 224 ± 24
23 | C1CCCCC1 [cyclohexane] + CCn1cc[n+](C)c1.F[B-](F)(F)F | 70.5 ± 7.4 | 60.9 ± 6.4 | 49.7 ± 5.2 | 39.6 ± 4.2 | 31.2 ± 3.3 | 27.5 ± 2.9 | 21.9 ± 2.3
24 | CC(C)CC(C)(C)C [2,2,4-trimethylpentane] + CCn1cc[n+](C)c1.F[B-](F)(F)F | 158 ± 17 | 143 ± 15 | 124 ± 13 | 112 ± 12 | 101 ± 11 | 85.8 ± 9 | 75.3 ± 7.9
25 | CCCCC [pentane] + CCn1cc[n+](C)c1.F[B-](F)(F)F | 68.8 ± 7.2 | 62.5 ± 6.6 | 57.6 ± 6.1 | 53.9 ± 5.7 | 49 ± 5.2 | 45.7 ± 4.8 | 42.1 ± 4.4
